In PubChem BioAssay AID463101 (The Scripps Research Institute Molecular Screening Center, 2010):
Active and inactive are the calls of the source.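 How the source made its calls: active means at 63 nM, GSTO1 inhibition of at least 80% or band labeling of at least 80% relative to 1 µM; inactive means the rest.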

Target: Glutathione S-transferase omega-1 (Homo sapiens) (UniProt P78417)
Test: GSTO1 inhibition versus direct click labeling – cell lysate, MDA-MB-435 proteome, click chemistry, set 2, mechanism study for GSTO1 inhibitor project, late-stage follow-up (AID 463101)
Conditions: MDA-MB-435 soluble proteome, gel ABPP fluorescence; for outcome / labeling: direct click chemistry labeling assay; for labeling: click chemistry direct labeling series, at 0.25 µM, stronger effect = higher value; for inhibition: in situ competitive ABPP, probe SE-Rh, at 1 µM (top of the series)

Sequence of Glutathione S-transferase omega-1 (Homo sapiens) (P78417 whole entry, looked up): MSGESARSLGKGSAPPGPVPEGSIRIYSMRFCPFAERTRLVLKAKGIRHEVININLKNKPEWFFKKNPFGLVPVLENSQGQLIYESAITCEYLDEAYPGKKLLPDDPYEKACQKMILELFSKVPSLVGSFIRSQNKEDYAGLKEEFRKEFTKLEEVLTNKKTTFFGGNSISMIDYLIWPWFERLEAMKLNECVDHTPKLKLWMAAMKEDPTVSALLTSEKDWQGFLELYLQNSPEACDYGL

outcome	labeling	inhibition	Compound
inactive	77%	100% (inactive)	C#CCCC(=O)NCCCN(C(=O)CCl)c1ccc([N+](=O)[O-])cc1
active	94%	100%	C#CCN(CCCN(C(=O)CCl)c1ccc([N+](=O)[O-])cc1)C(=O)C(F)(F)F
